How the values were obtained:
[1] = molecular target: T1, TRH (Homo sapiens, UniProt P34981); test: GPCR Profiler; type: cell-based
T1 construct: host or cells: Chem-1 cells with Gα15

[2] = molecular target: T2, ULK2 (Homo sapiens, UniProt Q8IYT8); test: KinomeScan; type: binding; conditions: read-out: % Control
T2 construct: purchased DiscoveRx

[3] = molecular target: T3, YANK3 (Homo sapiens, UniProt Q86UX6); test: KinomeScan; type: binding; conditions: read-out: % Control
T3 construct: purchased DiscoveRx

[4] = molecular target: T4, ABL1(T315I)-nonphosphorylated (Homo sapiens, UniProt P00519, T315I); test: KinomeScan; type: binding; conditions: read-out: % Control
T4 construct: purchased DiscoveRx

[5] = molecular target: T5, GPR103 (Homo sapiens, UniProt Q96P65); test: GPCR Profiler; type: cell-based
T5 construct: host or cells: Chem-1 cells expressing Gα15
T5 sequence (Q96P65 whole entry): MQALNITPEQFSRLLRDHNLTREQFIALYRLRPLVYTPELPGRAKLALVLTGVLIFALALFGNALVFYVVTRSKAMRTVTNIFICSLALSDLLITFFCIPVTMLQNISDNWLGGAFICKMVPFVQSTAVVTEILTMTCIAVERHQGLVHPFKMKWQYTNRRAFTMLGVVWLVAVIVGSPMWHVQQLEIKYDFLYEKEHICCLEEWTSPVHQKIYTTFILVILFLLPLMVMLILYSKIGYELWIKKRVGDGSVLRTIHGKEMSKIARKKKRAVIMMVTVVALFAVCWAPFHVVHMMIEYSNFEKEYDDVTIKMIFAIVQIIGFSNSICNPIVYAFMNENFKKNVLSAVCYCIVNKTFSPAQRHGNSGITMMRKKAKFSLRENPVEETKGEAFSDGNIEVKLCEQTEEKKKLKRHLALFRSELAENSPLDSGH

[6] = molecular target: T6, RET(V804L) (Homo sapiens, UniProt P07949, V804L); test: KinomeScan; type: binding; conditions: read-out: % Control
T6 construct: purchased DiscoveRx (Fremont, CA)

[7] = molecular target: T7, MEK4 (Homo sapiens, UniProt P45985); test: KinomeScan; type: binding; conditions: read-out: % Control
T7 construct: purchased DiscoveRx (Fremont, CA)

[8] = molecular target: T8, MC4 (Homo sapiens, UniProt P32245); test: GPCR Profiler; type: cell-based
T8 construct: host or cells: Chem-1 cells with promiscuous Gα15
T8 sequence (P32245 whole entry): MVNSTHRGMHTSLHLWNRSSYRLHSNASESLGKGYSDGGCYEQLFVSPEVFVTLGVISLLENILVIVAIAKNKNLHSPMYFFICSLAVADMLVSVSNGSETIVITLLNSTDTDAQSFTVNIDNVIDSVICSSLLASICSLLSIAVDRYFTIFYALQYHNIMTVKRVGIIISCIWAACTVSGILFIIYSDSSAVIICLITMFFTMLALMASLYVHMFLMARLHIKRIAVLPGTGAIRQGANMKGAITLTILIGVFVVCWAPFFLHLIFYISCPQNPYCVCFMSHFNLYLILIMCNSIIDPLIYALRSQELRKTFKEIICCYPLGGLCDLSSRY

[9] = molecular target: T9, PAK7 (Homo sapiens, UniProt Q9P286); test: KinomeScan; type: binding; conditions: read-out: % Control
T9 construct: purchased DiscoveRx

[10] = molecular target: T10, BLY1 (Homo sapiens, UniProt Q15722); test: GPCR Profiler; type: cell-based
T10 construct: host or cells: Chem-1 cells with promiscuous Gα15
T10 sequence (Q15722 whole entry): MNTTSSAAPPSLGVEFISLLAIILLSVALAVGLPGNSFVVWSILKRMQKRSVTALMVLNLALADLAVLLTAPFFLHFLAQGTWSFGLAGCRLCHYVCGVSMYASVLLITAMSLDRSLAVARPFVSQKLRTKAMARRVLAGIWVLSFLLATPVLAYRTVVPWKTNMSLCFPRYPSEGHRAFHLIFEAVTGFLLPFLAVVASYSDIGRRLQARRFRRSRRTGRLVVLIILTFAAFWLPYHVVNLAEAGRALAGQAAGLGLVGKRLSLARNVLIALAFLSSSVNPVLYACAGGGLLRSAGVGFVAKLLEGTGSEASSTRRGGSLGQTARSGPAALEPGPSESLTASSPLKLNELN

[11] = molecular target: T11, ARK5 (Homo sapiens, UniProt O60285); test: KinomeScan; type: binding; conditions: read-out: % Control
T11 construct: purchased DiscoveRx (Fremont, CA)
T11 sequence (O60285 whole entry): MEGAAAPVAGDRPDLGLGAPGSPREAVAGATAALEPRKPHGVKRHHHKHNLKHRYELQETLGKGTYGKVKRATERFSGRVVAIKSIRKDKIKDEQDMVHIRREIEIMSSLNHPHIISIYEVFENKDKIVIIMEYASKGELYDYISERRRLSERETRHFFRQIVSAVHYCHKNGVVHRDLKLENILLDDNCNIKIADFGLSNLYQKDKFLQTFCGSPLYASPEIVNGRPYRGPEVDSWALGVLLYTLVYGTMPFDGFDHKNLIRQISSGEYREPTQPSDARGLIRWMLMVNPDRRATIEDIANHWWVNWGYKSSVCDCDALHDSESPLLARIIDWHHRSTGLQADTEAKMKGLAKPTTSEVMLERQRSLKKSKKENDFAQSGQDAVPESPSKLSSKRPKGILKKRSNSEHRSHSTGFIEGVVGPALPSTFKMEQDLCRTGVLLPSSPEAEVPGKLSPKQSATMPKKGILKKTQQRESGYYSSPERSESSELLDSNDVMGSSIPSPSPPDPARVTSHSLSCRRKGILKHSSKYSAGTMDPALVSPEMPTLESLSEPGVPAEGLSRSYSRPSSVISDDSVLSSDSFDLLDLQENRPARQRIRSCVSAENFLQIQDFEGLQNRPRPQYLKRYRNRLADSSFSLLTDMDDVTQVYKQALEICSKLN

[12] = molecular target: T12, sst2 (Homo sapiens, UniProt P30874); test: GPCR Profiler; type: cell-based
T12 construct: host or cells: Chem-1 cells with Gα15
T12 sequence (P30874 whole entry, species assumed): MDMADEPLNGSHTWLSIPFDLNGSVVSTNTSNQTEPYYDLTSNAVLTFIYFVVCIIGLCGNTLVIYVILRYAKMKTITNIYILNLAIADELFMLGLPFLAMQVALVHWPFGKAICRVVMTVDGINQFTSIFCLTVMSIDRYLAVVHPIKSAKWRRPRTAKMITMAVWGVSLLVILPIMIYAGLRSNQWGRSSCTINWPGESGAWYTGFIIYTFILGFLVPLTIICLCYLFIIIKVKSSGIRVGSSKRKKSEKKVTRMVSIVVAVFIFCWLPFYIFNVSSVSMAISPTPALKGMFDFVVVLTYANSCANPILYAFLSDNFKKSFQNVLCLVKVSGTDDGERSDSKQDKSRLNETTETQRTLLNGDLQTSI

[13] = molecular target: CDK9 (Homo sapiens, UniProt P50750); test: KinomeScan; type: binding; conditions: read-out: % Control
[14] = molecular target: T13, Y4 (Homo sapiens, UniProt P50391); test: GPCR Profiler; type: cell-based
T13 construct: host or cells: Chem-1 cells expressing Galpha15
T13 sequence (P50391 whole entry): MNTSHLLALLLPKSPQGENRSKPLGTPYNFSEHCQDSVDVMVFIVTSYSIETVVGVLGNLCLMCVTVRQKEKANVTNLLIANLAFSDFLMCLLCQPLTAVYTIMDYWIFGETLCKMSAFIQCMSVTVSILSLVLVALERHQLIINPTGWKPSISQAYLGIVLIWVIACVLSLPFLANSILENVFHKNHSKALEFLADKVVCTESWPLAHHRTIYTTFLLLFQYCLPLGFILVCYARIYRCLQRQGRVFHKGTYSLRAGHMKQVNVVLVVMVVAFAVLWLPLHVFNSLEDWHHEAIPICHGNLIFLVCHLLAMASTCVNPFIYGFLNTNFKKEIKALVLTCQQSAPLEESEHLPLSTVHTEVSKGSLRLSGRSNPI

[15] = molecular target: T14, A1 (Homo sapiens, UniProt P30542); test: GPCR Profiler; type: cell-based
T14 construct: host or cells: Chem-1 cells with promiscuous Gα15
T14 sequence (P30542 whole entry): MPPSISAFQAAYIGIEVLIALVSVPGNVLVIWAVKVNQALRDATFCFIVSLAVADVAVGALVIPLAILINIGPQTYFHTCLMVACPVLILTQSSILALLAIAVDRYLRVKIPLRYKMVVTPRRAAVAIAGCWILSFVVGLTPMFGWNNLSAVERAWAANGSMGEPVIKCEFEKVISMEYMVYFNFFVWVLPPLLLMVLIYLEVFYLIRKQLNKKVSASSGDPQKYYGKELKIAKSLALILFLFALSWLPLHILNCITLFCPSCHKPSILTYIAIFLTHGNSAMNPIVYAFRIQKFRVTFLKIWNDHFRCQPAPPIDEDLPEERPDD

[16] = molecular target: T15, DCAMKL3 (Homo sapiens, UniProt Q9C098); test: KinomeScan; type: binding; conditions: read-out: % Control
T15 construct: purchased DiscoveRx (Fremont, CA), KinomeScan service

[17] = molecular target: T16, NMU2 (Homo sapiens, UniProt Q9GZQ4); test: GPCR Profiler; type: cell-based
T16 construct: host or cells: Chem-1 cells expressing Gα15
T16 sequence (Q9GZQ4 whole entry, species assumed): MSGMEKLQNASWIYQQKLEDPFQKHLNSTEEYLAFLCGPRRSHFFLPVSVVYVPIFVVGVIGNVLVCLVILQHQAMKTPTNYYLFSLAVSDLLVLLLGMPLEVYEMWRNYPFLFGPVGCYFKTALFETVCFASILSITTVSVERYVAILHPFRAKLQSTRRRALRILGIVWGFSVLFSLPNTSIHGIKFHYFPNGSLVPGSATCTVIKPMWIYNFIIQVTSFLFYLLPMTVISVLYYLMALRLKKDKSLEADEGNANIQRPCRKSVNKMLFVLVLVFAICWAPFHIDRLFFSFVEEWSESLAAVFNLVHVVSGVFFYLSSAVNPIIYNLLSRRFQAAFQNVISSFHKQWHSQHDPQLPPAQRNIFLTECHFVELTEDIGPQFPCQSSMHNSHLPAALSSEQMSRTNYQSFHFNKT

[18] = molecular target: T17, TNK2 (Homo sapiens, UniProt Q07912); test: KinomeScan; type: binding; conditions: read-out: % Control
T17 construct: purchased DiscoveRx (Fremont, CA)

[19] = molecular target: T18, RSK1(Kin.Dom.2-C-terminal) (Homo sapiens, UniProt Q15418); test: KinomeScan; type: binding; conditions: read-out: % Control
T18 construct: RSK1(Kin.Dom.2-C-terminal); purchased DiscoveRx (Fremont, CA)

[20] = molecular target: T19, PAF (Homo sapiens, UniProt P25105); test: GPCR Profiler; type: cell-based
T19 construct: host or cells: Chem-1 cells with Gα15
T19 sequence (P25105 whole entry): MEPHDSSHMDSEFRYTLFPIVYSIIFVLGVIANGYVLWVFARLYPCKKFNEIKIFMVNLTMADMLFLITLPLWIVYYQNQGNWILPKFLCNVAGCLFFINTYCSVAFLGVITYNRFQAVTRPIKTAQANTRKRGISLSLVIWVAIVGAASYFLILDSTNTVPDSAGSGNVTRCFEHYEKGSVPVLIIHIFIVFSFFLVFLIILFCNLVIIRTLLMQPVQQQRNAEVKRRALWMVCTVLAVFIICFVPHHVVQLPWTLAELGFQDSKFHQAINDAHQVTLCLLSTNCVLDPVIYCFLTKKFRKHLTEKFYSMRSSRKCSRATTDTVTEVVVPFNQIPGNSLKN

[21] = molecular target: T20, FER (Homo sapiens, UniProt P16591); test: KinomeScan; type: binding; conditions: read-out: % Control
T20 construct: purchased DiscoveRx (Fremont, CA)

[22] = molecular target: T21, BRK (Homo sapiens, UniProt Q13882); test: KinomeScan; type: binding; conditions: read-out: % Control
T21 construct: purchased DiscoveRx (Fremont, CA)

[23] = molecular target: T22, RPS6KA5(Kin.Dom.2-C-terminal) (Homo sapiens, UniProt O75582); test: KinomeScan; type: binding; conditions: read-out: % Control
T22 construct: RPS6KA5(Kin.Dom.2-C-terminal); purchased DiscoveRx (Fremont, CA)

[24] = molecular target: T23, AKT3 (Homo sapiens, UniProt Q9Y243); test: KinomeScan; type: binding; conditions: read-out: % Control
T23 construct: purchased DiscoveRx (Fremont, CA)

[25] = molecular target: T24, GPR43 (Homo sapiens, UniProt O15552); test: GPCR Profiler; type: cell-based
T24 construct: host or cells: Chem-1 cells with promiscuous Gα15
T24 sequence (O15552 whole entry, species assumed): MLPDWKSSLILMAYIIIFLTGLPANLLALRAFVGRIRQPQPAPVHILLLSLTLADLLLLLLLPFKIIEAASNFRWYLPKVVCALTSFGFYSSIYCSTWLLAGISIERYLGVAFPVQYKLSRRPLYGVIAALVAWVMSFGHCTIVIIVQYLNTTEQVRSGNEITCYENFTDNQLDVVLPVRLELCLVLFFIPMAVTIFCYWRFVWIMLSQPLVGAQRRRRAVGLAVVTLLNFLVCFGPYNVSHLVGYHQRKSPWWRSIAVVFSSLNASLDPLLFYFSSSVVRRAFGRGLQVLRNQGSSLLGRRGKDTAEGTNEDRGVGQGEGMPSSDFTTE

[26] = system: 158 GPCRs; test: GPCR profiling panel (summary); type: cell-based; conditions: 10 μM
Procedure: GPCR profiling assays were performed by Millipore (St. Louis, MO) using in cells expressing Gα15, a promiscuous G protein that enhances GPCR coupling to downstream Ca2+ signaling pathways. KinomeScan was conducted by DiscoveRx (Fremont, CA).
Since GPCRs represent >30% of targets for FDA-approved small molecules and are known to modulate cell migration, activity against 158 GPCRs was assessed based on their chemical structures. GPCRs (158) were tested for agonist and antagonist activity at 10 μM. […] Chemical segregation analysis of zebrafish phenotype was conducted to further identify the inhibitory activity responsible for the zebrafish phenotype. […] The identities of the R groups in Formula A are shown below in Table 5.
To identify the target of OGM1, the molecule was profiled for binding in a panel of 442 kinases (KinomeScan™, DiscoveRx™) and assessed its activity against 158 GPCRs in a single-point assay in Chem-1 cells that uses a promiscuous Gα15 protein to trigger calcium flux (see Table 9 and Table 10, below). […] Table 9. KinomeScan (DiscoverRx) profiling of OGM1.

[27] = molecular target: T25, DMPK (Homo sapiens, UniProt Q09013); test: KinomeScan; type: binding; conditions: read-out: % Control
T25 construct: purchased DiscoveRx (Fremont, CA), KinomeScan service

[28] = molecular target: T26, PIPSK1A (Homo sapiens, UniProt Q99755); test: KinomeScan; type: binding; conditions: read-out: % Control
T26 construct: purchased DiscoveRx (Fremont, CA)

[29] = molecular target: T27, LPA3 (Homo sapiens, UniProt Q9UBY5); test: GPCR Profiler; type: cell-based
T27 construct: host or cells: Chem-1 cells with promiscuous Gα15
T27 sequence (Q9UBY5 whole entry, species assumed): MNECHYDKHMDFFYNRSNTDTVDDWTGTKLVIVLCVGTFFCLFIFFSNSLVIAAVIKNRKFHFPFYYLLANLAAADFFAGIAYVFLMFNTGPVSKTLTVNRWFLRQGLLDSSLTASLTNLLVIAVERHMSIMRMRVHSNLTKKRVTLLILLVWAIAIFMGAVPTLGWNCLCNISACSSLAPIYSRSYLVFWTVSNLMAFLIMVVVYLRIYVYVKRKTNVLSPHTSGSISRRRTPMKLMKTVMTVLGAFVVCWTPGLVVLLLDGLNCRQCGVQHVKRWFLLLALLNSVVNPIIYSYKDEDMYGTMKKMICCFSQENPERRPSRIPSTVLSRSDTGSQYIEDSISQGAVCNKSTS

[30] = molecular target: T28, PAK1 (Homo sapiens, UniProt Q13153); test: KinomeScan; type: binding; conditions: read-out: % Control
T28 construct: purchased DiscoveRx

T1 sequence (P34981 whole entry): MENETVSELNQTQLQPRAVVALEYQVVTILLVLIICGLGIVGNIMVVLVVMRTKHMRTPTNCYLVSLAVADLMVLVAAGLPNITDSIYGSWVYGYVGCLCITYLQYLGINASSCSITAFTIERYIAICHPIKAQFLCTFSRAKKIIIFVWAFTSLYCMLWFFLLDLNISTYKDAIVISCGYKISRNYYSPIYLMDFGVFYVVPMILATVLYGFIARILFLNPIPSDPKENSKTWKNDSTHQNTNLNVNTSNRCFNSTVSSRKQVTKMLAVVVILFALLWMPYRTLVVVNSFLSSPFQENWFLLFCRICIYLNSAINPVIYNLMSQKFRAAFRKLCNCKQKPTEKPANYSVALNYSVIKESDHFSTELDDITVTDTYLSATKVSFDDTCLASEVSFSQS

CCc1ccc2c(c1)C1(NN=C(c3cccc4ccccc34)S1)C(=O)N2 (centres unmarked) [OGM1, 5-ethyl-5′-naphthalen-1-ylspiro[1H-indole-3,2′-3H-1,3,4-thiadiazole]-2-one]
Antagonism ([1]; 10 uM): 1.4
Agonism ([1]; 12.5 uM): 0.1
remaining binding at 10 µM [2]: 100%
remaining binding at 10 µM [3]: 100%
remaining binding at 10 µM [4]: 73%
Antagonism ([5]; 10 uM): −7
Agonism ([5]; 12.5 uM): −0.1
remaining binding at 10 µM [6]: 90%
remaining binding at 10 µM [7]: 100%
Antagonism ([8]; 10 uM): −5.4
Agonism ([8]; 12.5 uM): −0.3
remaining binding at 10 µM [9]: 62%
Antagonism ([10]; 10 uM): −5.5
Agonism ([10]; 12.5 uM): 0.3
remaining binding at 10 µM [11]: 80%
Antagonism ([12]; 10 uM): −1
Agonism ([12]; 12.5 uM): −0.2
remaining binding at 10 µM [13]: 98%
Antagonism ([14]; 10 uM): −5.5
Agonism ([14]; 12.5 uM): −0.2
Antagonism ([15]; 10 uM): −13.9
Agonism ([15]; 12.5 uM): 0.1
remaining binding at 10 µM [16]: 100%
Antagonism ([17]; 10 uM): −4.2
Agonism ([17]; 12.5 uM): 0
remaining binding at 10 µM [18]: 100%
remaining binding at 10 µM [19]: 73%
Antagonism ([20]; 10 uM): 6.6
Agonism ([20]; 12.5 uM): 0.4
remaining binding at 10 µM [21]: 100%
remaining binding at 10 µM [22]: 100%
remaining binding at 10 µM [23]: 91%
remaining binding at 10 µM [24]: 100%
Antagonism ([25]; 10 uM): 6.4
Agonism ([25]; 12.5 uM): −0.2
GPCRs significantly inhibited [26]: significantly inhibited only the lysophosphatidic acid receptor 1 (LPAR1), and extracellular proton-sensing GPR68/OGR1
remaining binding at 10 µM [27]: 86%
remaining binding at 10 µM [28]: 100%
Antagonism ([29]; 10 uM): 1.1
Agonism ([29]; 12.5 uM): 0.3
remaining binding at 10 µM [30]: 70%

From US20240327364A1, “THERAPEUTIC TARGETING OF GPR68 TO INDUCE FERROPTOSIS” (University Of Maryland, Baltimore, priority 2023, published 2024)
